Consider two molecules from patent US20030152628A1, “Dual release formulation comprising levodopa ethyl ester and a decarboxylase inhibitor in an immediate-release layer with levodopa ethyl ester in a controlled release core” (priority 2001, published 2003).

Values after ≈ are worked out from the molar mass of the structure shown.

The nature of data set [1]: Solubility and stability properties of the active materials.
Data set [2] can be described thus: Solubility at ˜22-24° C. versus pH. It counts as physicochemical. The text has this: However, carbidopa and LDEE, examples of two active materials in the composition of the present invention, have different chemical and physical properties and contrasting solubility characteristics especially in acid conditions, i.e., in the gastrointestinal tract (see Table 1).

`C[C@@](Cc1ccc(O)c(O)c1)(NN)C(=O)O` [Carbidopa, carbidopa, reference compound]: in data set [1], the solubility in water entry is on record as “slightly soluble”.

As for `CCOC(=O)[C@@H](N)Cc1ccc(O)c(O)c1` [LDEE, levodopa ethyl ester], the Solubility amounted to 2200 mg/mL (≈ 9770 mM) in data set [2] (pH 1.0) and 1700 mg/mL (≈ 7550 mM) in data set [2] (pH 5.0). For the same molecule, the “sensitivity to moisture / hydrolysis” value in data set [1] was “highly sensitive to moisture, undergoes hydrolysis easily”. Also, the “stability at room temperature” value in data set [1] (kept under refrigeration (2-8° C.)) is given as “not stable at room temperature”.
